Data set [1] relates to LPS-induced disseminated intravascular coagulation. The note with it: cited from earlier work.
In data set [2] the test system is intrinsic pathway of coagulation. The note with it: in vitro; cited from earlier work.
For another data set, the system named is blood. To be noted: blood contacted with inhibitor; cited from earlier work.
For data set [3] the following is noted: in vivo; cited from earlier work.
Data set [4] is described as follows: Gravimetric Vapour Sorption (GVS). Format: physicochemical. How it is done: Gravimetric Vapour Sorption (GVS) data were collected using the following method: Approximately 10 mg of sample was placed into a wire-mesh vapour sorption balance pan and loaded into an ‘IgaSorp’ vapour sorption balance (Hiden Analytical Instruments). The sample was then dried by maintaining a 0% humidity environment until no further weight change was recorded. Subsequently, the sample was then subjected to a ramping profile from 0-90% RH at 10% RH increments, maintaining the sample at each step until equilibration had been attained (99% step completion). Upon reaching equilibration, the % RH within the apparatus was ramped to the next step and the equilibration procedure repeated. After completion of the sorption cycle, the sample was then dried using the same procedure. The weight change during the sorption/desorption cycles were then monitored, allowing for the hygroscopic nature of the sample to be determined.

A short description of data set [5]: Visual aqueous solubility. In kind it is physicochemical. To be noted: water, thermodynamic from solid. How it is done: Form 1 (10 mg) was weighed into a glass vial and water was added in 100 μL portions up to 3 mL then 1 mL portions thereafter. Solubility was assessed visually following a brief period of equilibration.
Form 18 (10 mg) was weighed into a glass vial and water was added in 100 μL portions up to 3 mL then 1 mL portions thereafter. Solubility was assessed visually following a brief period of equilibration.
Form 8 (10 mg) was weighed into a glass vial and water was added in 100 μL portions up to 3 mL then 1 mL portions thereafter. Solubility was assessed visually following a brief period of equilibration.
Form 15 (10 mg) was weighed into a glass vial and water was added in 100 μL portions up to 3 mL then 1 mL portions thereafter. Solubility was assessed visually following a brief period of equilibration.
Form 16 (10 mg) was weighed into a glass vial and water was added in 100 μL portions up to 3 mL then 1 mL portions thereafter. Solubility was assessed visually following a brief period of equilibration.

Another data set in a line: Slurry studies. Format: physicochemical. To be noted: 90/10 IPA/water, ambient temperature, 72 hrs. How it is done: Form 1 (20 mg) was suspended in 90/10 IPA/water (200 μL or […]) and shaken at ambient temperature for 72 hrs. The supernatant was evaporated rather than filtered due to the small volume and the resulting solid was examined by XRPD (FIG. 6).
The supernatant was evaporated rather than filtered due to the small volume and the resulting solid was examined by XRPD (FIG. 28).
The supernatant was evaporated rather than filtered due to the small volume and the resulting solid was examined by XRPD (FIG. 34).
The supernatant was evaporated rather than filtered due to the small volume and the resulting solid was examined by XRPD (FIG. 40).

The nature of data set [6]: Stability study of Form 1 (double polyethylene bags, HDPE bottle). The note with it: for Change in the XRPD diffractogram on storage: after 1 month and 3 months. Format: physicochemical. On the procedure: Further evidence of the suitability of the crystalline forms of N-[(3-fluoro-4-methoxypyridin-2-yl)methyl]-3-(methoxymethyl)-1-({4-[(2-oxopyridin-1-yl)methyl]phenyl}methyl)pyrazole-4-carboxamide for pharmaceutical development is provided by the stability data disclosed herein. Two samples of Form 1 of N-[(3-fluoro-4-methoxypyridin-2-yl)methyl]-3-(methoxymethyl)-1-({4-[(2-oxopyridin-1-yl)methyl]phenyl}methyl)pyrazole-4-carboxamide were stored at 25° C./60% RH and 40° C./75% RH packed in double polyethylene bags and sealed in a HDPE bottle.
A sample of Form 1 was packed in double polyethylene bags and sealed in a HDPE bottle and stored at conditions of 25° C./60% RH. The sample was reanalysed after 1 month and 3 months by XRPD (using Method B). No change in the XRPD diffractogram was observed when the sample was stored at 25° C./60% RH after either 1 month or 3 months.
Further tests on the sample of Form 1 stored at 25° C./60% RH were carried out as described in the table below:
A second sample of Form 1 was packed in double polyethylene bags and sealed in a HDPE bottle and stored under accelerated stability conditions of 40° C./75% RH. The sample was reanalysed after 1 month and 3 months by XRPD (using Method B). No change in the XRPD diffractogram was observed when the sample was stored at 40° C./75% RH after either 1 month or 3 months.
Further tests on the sample of Form 1 stored at 40° C./75% RH were carried out as described in the table below: […]

For data set [7] the following is noted: in vivo; cited from earlier work. The source holds these as a separate data set.
In a further data set the target is T1, Human KLK1 (Homo sapiens, UniProt P06870).
T1 construct: purchased Callbiochem
T1 sequence (P06870 25-262): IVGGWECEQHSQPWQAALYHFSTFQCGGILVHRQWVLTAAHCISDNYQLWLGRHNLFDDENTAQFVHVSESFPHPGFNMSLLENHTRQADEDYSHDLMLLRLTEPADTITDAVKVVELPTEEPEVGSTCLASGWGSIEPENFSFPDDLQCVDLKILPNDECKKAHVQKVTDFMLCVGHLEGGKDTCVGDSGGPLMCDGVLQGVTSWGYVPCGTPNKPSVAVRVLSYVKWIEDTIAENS
Description: Determination of the IC50 for KLK1. Format: biochemical. The note with it: 25° C., fluorogenic substrate H-DVal-Leu-Arg-AFC. On the procedure: KLK1 inhibitory activity in vitro was determined using standard published methods (see e.g. Johansen et al., Int. J. Tiss. Reac. 1986, 8, 185; Shori et al., Biochem. Pharmacol., 1992, 43, 1209; Sturzebecher et al., Biol. Chem. Hoppe-Seyler, 1992, 373, 1025). Human KLK1 (Callbiochem) was incubated at 25° C. with the fluorogenic substrate H-DVal-Leu-Arg-AFC and various concentrations of the test compound. Residual enzyme activity (initial rate of reaction) was determined by measuring the change in […] at 410 nm and the IC50 value for the test compound was determined.

Some results are limits rather than exact numbers.

In the case of `Cl.NCC1CCC(C(=O)N[C@@H](Cc2ccccc2)C(=O)Nc2ccc(CC(=O)O)cc2)CC1` (stereo partly shown) [PKSI-527], the “Effect on platelet count, fibrinogen level and FDP level” value in data set [1] is “significantly suppressed the decrease in platelet count and fibrinogen level as well as the increase in FDP level”.
Regarding Ecallantide, the “Contact activated induced coagulation” value in data set [2] is “delay contact activated induced coagulation”. The “Activated clotting time (ACT)” value in the data set with blood is on record as “increase in activated clotting time (ACT)”. Moreover, in data set [3], the Anaphylactic reactions result is reported as “risks of anaphylactic reactions”.
Turning to `COCc1nn(Cc2ccc(Cn3ccccc3=O)cc2)cc1C(=O)NCc1nccc(OC)c1F` [Form 1, N-[(3-fluoro-4-methoxypyridin-2-yl)methyl]-3-(methoxymethyl)-1-({4-[(2-oxopyridin-1-yl)methyl]phenyl}methyl)pyrazole-4-carboxamide], the “%-Wt (dry basis)” value amounted to 0.04722% in [4] (adsorption, about 0 %-RH); 0.23% in data set [4] (adsorption, about 10 %-RH); 0.3541% in [4] (adsorption, about 20 %-RH); 0.7126% in data set [4] (adsorption, about 30 %-RH); 0.825% in data set [4] (adsorption, about 40 %-RH); 1.207% in [4] (adsorption, about 50 %-RH). Also, the “%-Wt (dry basis)” value is recorded as 1.699% in [4] (adsorption, about 60 %-RH); 1.912% in data set [4] (adsorption, about 70 %-RH); 2.186% in data set [4] (adsorption, about 80 %-RH); 3.226% in data set [4] (adsorption, about 90 %-RH); 0.000368% in data set [4] (desorption, about 0 %-RH); 0.1269% in [4] (desorption, about 5 %-RH). Besides, the “%-Wt (dry basis)” value in [4] (desorption, about 15 %-RH) stood at 0.5017%; in [4] (desorption, about 25 %-RH) it was 0.7008%; in data set [4] (desorption, about 35 %-RH), 1.017%; in data set [4] (desorption, about 45 %-RH) it was 1.525%; in data set [4] (desorption, about 55 %-RH), 1.685%; in [4] (desorption, about 65 %-RH) it was 1.865%. For the same compound, the “%-Wt (dry basis)” value in data set [4] (desorption, about 75 %-RH) was 2.116%; in data set [4] (desorption, about 85 %-RH), 2.547%. Besides, the “Increase in water content by GVS (hygroscopicity, in words)” value in [4] (up to 70% relative humidity) is on record as “only a relatively gradual increase in water content”. Also, the solubility in data set [5] is less than 500 µg/mL. Moreover, in the data set “Slurry studies”, the “XRPD of solid after slurry versus starting form” value is given as “different to that of FIG. 2a”. Also, the Appearance entry in data set [6] (25° C./60% RH, 1 month) is given as “Off-white”; in [6] (25° C./60% RH, 3 months), “Off-white”; in data set [6] (25° C./60% RH, Initial), “Off-white”; in data set [6] (40° C./75% RH, 1 month), “Off-white”; in [6] (40° C./75% RH, 3 months) it was “Off-white”; in data set [6] (40° C./75% RH, Initial) it was “Off-white”. For the same compound, the “Assay by HPLC (on an anhydrous and solvent free basis)” value is reported as 99.5 % w/w in data set [6] (25° C./60% RH, 1 month); 99.6 % w/w in data set [6] (25° C./60% RH, 3 months); 101.0 % w/w in data set [6] (25° C./60% RH, Initial); 99.5 % w/w in data set [6] (40° C./75% RH, 1 month); 100.0 % w/w in data set [6] (40° C./75% RH, 3 months); 101.0 % w/w in [6] (40° C./75% RH, Initial). In addition, the “DSC Tonset” value in data set [6] (25° C./60% RH, 1 month) worked out at 151.1 °C; in data set [6] (25° C./60% RH, 3 months), 150.8 °C; in data set [6] (25° C./60% RH, Initial), 151.3 °C; in data set [6] (40° C./75% RH, 1 month), 151.1 °C; in data set [6] (40° C./75% RH, 3 months) it was 150.6 °C; in data set [6] (40° C./75% RH, Initial), 151.3 °C. For the same compound, the “DSC Tpeak” value in [6] (25° C./60% RH, 1 month) stood at 152.4 °C; in data set [6] (25° C./60% RH, 3 months) it was 152.2 °C; in [6] (25° C./60% RH, Initial) it was 152.9 °C; in data set [6] (40° C./75% RH, 1 month), 152.3 °C; in data set [6] (40° C./75% RH, 3 months), 152.5 °C; in data set [6] (40° C./75% RH, Initial), 152.9 °C. The “HPLC assay (on an “as is” basis)” value in data set [6] (25° C./60% RH, 1 month) was determined as 99.4 % w/w; in [6] (25° C./60% RH, 3 months), 99.5 % w/w; in data set [6] (25° C./60% RH, Initial) it was 100.9 % w/w; in data set [6] (40° C./75% RH, 1 month), 99.4 % w/w; in data set [6] (40° C./75% RH, 3 months) it was 99.9 % w/w; in [6] (40° C./75% RH, Initial), 100.9 % w/w. Moreover, the “Polymorph by XRPD” value in data set [6] (25° C./60% RH, 1 month) was “Conforms to”; in data set [6] (25° C./60% RH, 3 months), “Conforms to”; in data set [6] (25° C./60% RH, Initial), “Conforms to”; in [6] (40° C./75% RH, 1 month), “Conforms to”; in [6] (40° C./75% RH, 3 months), “Conforms to”; in data set [6] (40° C./75% RH, Initial) it was “Conforms to”. In addition, the “Purity by HPLC” value turned out to be 99.62 area % in data set [6] (25° C./60% RH, 1 month); 99.70 area % in [6] (25° C./60% RH, 3 months); 99.70 area % in data set [6] (25° C./60% RH, Initial); 99.57 area % in data set [6] (40° C./75% RH, 1 month); 99.71 area % in data set [6] (40° C./75% RH, 3 months); 99.70 area % in data set [6] (40° C./75% RH, Initial). The Total impurities was 0.38 area % in [6] (25° C./60% RH, 1 month); 0.30 area % in data set [6] (25° C./60% RH, 3 months); 0.30 area % in data set [6] (25° C./60% RH, Initial); 0.43 area % in data set [6] (40° C./75% RH, 1 month); 0.29 area % in data set [6] (40° C./75% RH, 3 months); 0.30 area % in [6] (40° C./75% RH, Initial). In addition, the “Water by Karl Fischer analysis” value in [6] (25° C./60% RH, 1 month) was less than 0.1 % w/w; in data set [6] (25° C./60% RH, 3 months), less than 0.1 % w/w; in [6] (25° C./60% RH, Initial), less than 0.1 % w/w; in data set [6] (40° C./75% RH, 1 month) it was less than 0.1 % w/w; in data set [6] (40° C./75% RH, 3 months) it was 0.1 % w/w; in data set [6] (40° C./75% RH, Initial), less than 0.1 % w/w. Besides, the “Change in the XRPD diffractogram on storage” value in data set [6] (25° C./60% RH) and in [6] (40° C./75% RH) was “no change” each time.
Take `C=Cc1cc(C(=O)Nc2ccc(C(=N)N)cc2)c(-c2ccc(C(=O)NCC3CC3)nc2C(=O)O)cc1OC` [BCX4161]: in data set [7], the Oral availability entry is given as “orally available”.
For `COCc1nn(Cc2ccc(Cn3ccccc3=O)cc2)cc1C(=O)NCc1nccc(OC)c1F` [N-[(3-fluoro-4-methoxypyridin-2-yl)methyl]-3-(methoxymethyl)-1-({4-[(2-oxopyridin-1-yl)methyl]phenyl}methyl)pyrazole-4-carboxamide], the IC50 against Human KLK1 is more than 40 µM.

(Values after patent US11739068B2, “Polymorphs of N-[(3-fluoro-4-methoxypyridin-2-yl)methyl]-3-(methoxymethyl)-1-({4-[(2-oxopyridin-1-yl)methyl]phenyl}methyl)pyrazole-4-carboxamide and salts thereof” (KALVISTA PHARMACEUTICALS LIMITED, priority 2016, dated 2023).)
